This is an account of results in ChEMBL document CHEMBL3392926, “Antiprotozoal Activity Profiling of Approved Drugs: A Starting Point toward Drug Repositioning”.

For orientation: IC50 means the concentration that inhibits the measured activity by half. A high value points to a need for much substance.

The test system of one assay is Trypanosoma cruzi. Put plainly: microbe, parasite or virus in culture. Type of assay: functional, organism-based, Tulahuen C4 (LacZ). Particulars: Trypanosoma cruzi, Tulahuen C4 (LacZ), 96 h.
Assay [1] is described as follows: cells. It is filed as functional, cell-based. Particulars: Rattus norvegicus, L6, 72 h.
Description: DNDI: Cytotoxicity in Vitro, 72 hour, in rat skeletal myoblast cells
The nature of assay [2]: cells. Type of assay: functional, cell-based. The following applies: Mus musculus, NMRI, BalbC or CD1 mice, Macrophage, 96 h.
Description: DNDI: Cytotoxicity in Vitro, 96 hour, in mouse macrophages (infected-amastigotes)
Assay [3] is described as follows: DNDI: Cytotoxicity in Vitro, 96 hour, in primary peritoneal mouse macrophages. Particulars: Macrophage. It is filed as functional, cell-based.
Assay [4] has as its system Trypanosoma brucei rhodesiense. Briefly: microbe, parasite or virus in culture. Type of assay: functional, organism-based, STIB 900. Particulars: Trypanosoma brucei, STIB 900, 72 h.
Description: DNDI: HAT in Vitro, 72 hour
Assay [5] has as its system Leishmania donovani. Put plainly: microbe, parasite or virus in culture. Type of assay: functional, organism-based, MHOM/ET/67/L82. Particulars: Leishmania donovani, MHOM/ET/67/L82, 72 h.
Description: DNDI: Leish (axenic) in Vitro, 72 hour
Assay [6] relates to Leishmania donovani. Briefly: microbe, parasite or virus in culture. Type of assay: functional, organism-based, MHOM/ET/67/L82. The following applies: Leishmania donovani, MHOM/ET/67/L82, 96 h.
Description: DNDI: Leish (macro) in Vitro, 96 hour
The next assay relates to Plasmodium falciparum. Put plainly: microbe, parasite or virus in culture. Particulars: Plasmodium falciparum, K1, 72 h. Type of assay: functional, organism-based, K1.

Description for Plasmodium falciparum: DNDI: Malaria in Vitro, 72 hour
Description for Trypanosoma cruzi: DNDI: Chagas in Vitro, 96 hour

Turning to `CCN(CC)CCCCCCNc1cc(OC)cc2c(C)ccnc12` [SITAMAQUINE], the 50% inhibitory concentration (IC50) in the assay on Trypanosoma cruzi is 22 µM; in “cells [1]”, 32.3 µM; in “cells [2]”, above 29.1 µM; in assay [3] it was 21.4 µM; in assay [4] it was 7.39 µM; in the assay on Leishmania donovani [5], 13.7 µM. Further, the values for the IC50 with Leishmania donovani [6] and in the assay on Plasmodium falciparum were 19.5 µM and 0.08 µM, respectively.

As for `COc1cc(N[C@H](C)CCCN)c2ncccc2c1`, the IC50 in the assay on Trypanosoma cruzi is 17.9 µM; in the assay “cells [1]” it was 43.2 µM; in “cells [2]”, above 38.6 µM; in assay [3], 39.7 µM; in assay [4] it was 4.78 µM; in the assay on Leishmania donovani [5], 48.6 µM. In the assay on Leishmania donovani [6], inhibition was half-maximal at 28.2 µM (IC50).

In the case of `Cc1cc(C2CCCCC2)n(O)c(=O)c1` [CICLOPIROX OLAMINE], the IC50 with Trypanosoma cruzi is 2.49 µM; in the assay “cells [1]”, 1.04 µM; in the assay “cells [2]”, above 11.2 µM; in assay [3] it was 20.3 µM; in assay [4] it was 0.8 µM; with Leishmania donovani [5], 1.64 µM. Also, the half-inhibitory concentration (IC50) with Leishmania donovani [6] was found to be 9.09 µM; in the assay with Plasmodium falciparum, 3.75 µM.

On to `C[C@@H]1[C@H](O)[C@@H](C)/C=C/C=C/C=C/C=C/C=C/C=C/C=C/[C@H](O[C@@H]2O[C@H](O)[C@@H](O)[C@H](N)[C@@H]2O)C[C@@H]2O[C@](O)(C[C@@H](O)C[C@@H](O)[C@H](O)CC[C@@H](O)C[C@@H](O)CC(=O)O[C@H]1C)C[C@H](O)[C@H]2C(=O)O`, for which the IC50 with Trypanosoma cruzi was determined as 56.7 µM; in “cells [1]”, 10.3 µM; in the assay “cells [2]”, 32.4 µM; in assay [3], 22.4 µM; in assay [4], 0.76 µM; in the assay with Leishmania donovani [5], 0.34 µM. The IC50 in the assay on Leishmania donovani [6] came out at 0.31 µM; in the assay on Plasmodium falciparum it was 0.8 µM.

Consider `CC(C)/N=c1\cc2n(-c3ccc(Cl)cc3)c3ccccc3nc-2cc1Nc1ccc(Cl)cc1` [CLOFAZIMINE], for which the IC50 was found to be 38.2 µM in the assay with Trypanosoma cruzi; 9.97 µM in “cells [1]”; 6.34 µM in the assay “cells [2]”; 10.7 µM in assay [3]; 7.63 µM in assay [4]; 22.4 µM in the assay with Leishmania donovani [5]. Moreover, the IC50 in the assay on Leishmania donovani [6] turned out to be 0.95 µM; in the assay with Plasmodium falciparum it was 4.1 µM.
